From paper PMC10610545, “Preclinical Evaluation of an Imidazole-Linked Heterocycle for Alzheimer’s Disease” (Pharmaceutics, 2023)
Where a name gives a salt, the structure may show the parent alone.

Tests used:
[1] = system: imidazoline I2 receptors (I2-IR); test: Competition binding against [3H]2-BFI, membranes from post-mortem human frontal cortex; settings: for Selectivity I2/α2: antilog (pKi I2-IR − pKi α2-AR); for [3H]-2-BFI I2 pKi (One Site): monophasic fit; for [3H]-2-BFI I2 pKi (Two Sites), high affinity (pKiH) / [3H]-2-BFI I2 pKi (Two Sites), low affinity (pKiL): two-site model; for [3H]-2-BFI I2 pKi (Two Sites), high affinity (pKiH): high-affinity site; for [3H]-2-BFI I2 pKi (Two Sites), low affinity (pKiL): low-affinity site
Source text: (§1) The inhibition constant (Ki) for each compound was obtained and is expressed as the corresponding pKi. The selectivity for these two receptors was expressed by the I2/α2 index, calculated as the antilogarithm of the […] between pKi values for I2-IR and pKi values for α2-AR.
(§2) Preparation of cellular membranes.
(§3) Human brain samples were obtained at autopsy in the Basque Institute of Legal Medicine, Bilbao, Spain. Samples from the prefrontal cortex (Brodmann’s area 9) were dissected at the time of autopsy and immediately stored at -70 °C until assay. The study was developed in compliance with policies of research and ethical review boards for postmortem brain studies.
(§4) To obtain cellular membranes (P2 fraction) the different samples were homogenized using an ultraturrax in 10 volumes of homogenization buffer (0.25 M sucrose, 5 mM Tris–HCl, pH 7.4).
(§5) The crude homogenate was centrifuged for 5 min at 1000 g (4 °C) and the supernatant was centrifuged again for 10 min at 40,000 g (4 °C). The resultant pellet was washed twice in 5 volumes of homogenization buffer and recentrifuged in similar conditions. Protein content was measured according to the method of Bradford using BSA as standard.
(§6) Competition Binding Assays.
(§7) The pharmacological activity of the compounds was evaluated through competition binding studies against the I2-IR selective radioligand [3H]2-BFI or the α2-adrenergic receptor selective radioligand [3H]RX821002. Specific binding was measured in 0.25 mL aliquots (50 mM Tris-HCl, pH 7.5) containing 100 µg of membranes, which were incubated in 96-well plates either with […]
(§8) Incubations were terminated by separating free ligand from bound ligand by rapid filtration […]
(§9) counted for radioactivity by liquid scintillation spectrometry using a MicroBeta TriLux counter (PerkinElmer). Specific binding was determined and plotted as a function of the compound concentration. Nonspecific binding was determined in the presence of idazoxan (10–5 M), a compound with well stablished affinity for I2-IR and α2-adrenergic receptors, in [3H]2-BFI and [3H]RX821002 assays. To obtain the inhibition constant (Ki) analyses of competition experiments were performed by nonlinear regression using the GraphPad Prism program. Ki values were normalized to pKi values. I2-IR/α2 selectivity index was calculated as the antilogarithm of the difference between pKi values for I2-IR and pKi values for α2-ARs.

[2] = molecular target: α2-adrenergic receptor (α2-AR); test: Competition binding against [3H]RX821002, membranes from post-mortem human frontal cortex
Source text: as §1, §2, §3, §4, §5, §6, §7, §8, §9

[3] = PAMPA-BBB permeation assay; type: in vitro ADME, porcine; settings: pig, PBS/EtOH (70:30), mean ± SD, read-out: Permeability Pe
Procedure: In vitro Blood-Brain Barrier Permeation Assay
To evaluate the brain penetration of the different compounds, a parallel artificial membrane permeation assay for blood-brain barrier was used, following the method described by Di et al.1 The in vitro permeability (Pe) of fourteen commercial drugs (see Table S1) through lipid extract of porcine brain membrane together with the test compounds were determined. Commercial drugs and assayed compounds were tested using a mixture of PBS:ETOH (70:30). Assay validation was made by comparing the experimental permeability with the reported values of the commercial drugs by bibliography and lineal correlation between experimental and reported permeability of the fourteen commercial drugs using the parallel artificial membrane permeation […]
From this equation and taking into account the limits established by Di et al. for BBB permeation, we established the ranges of permeability […]
predictive penetration in the CNS used as references.
1 Di, L.; Kerns, E. H.; Fan, K.; McConnell, O. J.; and Carter, G. T. High throughput artificial membrane permeability assay for blood-brain barrier.

c1ccc(-c2ncc3cc(-n4ccnc4)ccc3n2)cc1 [CR4056]
Selectivity I2/α2 [1]: 1995 | [3H]-2-BFI I2 pKi (One Site) [1]: 5.95 ± 0.11

c1ccc2oc(C3=NCCN3)cc2c1 [Compound 2-BFI, 2-(2-benzofuranyl)-2-imidazoline]
[3H]-RX821002 α2 pKi [2]: 4.58 ± 0.22 | Selectivity I2/α2 [1]: 5370 | Ki ([1]; corresponds to pKiH, read-out: Ki of the high-affinity I2 site): 1 nM | [3H]-2-BFI I2 pKi (One Site) [1]: 8.31 ± 0.13 | [3H]-2-BFI I2 pKi (Two Sites), high affinity (pKiH) [1]: 9.08 ± 0.22 | [3H]-2-BFI I2 pKi (Two Sites), low affinity (pKiL) [1]: 7.15 ± 0.31

c1ccc2c(c1)OCC(C1=NCCN1)O2 (stereo not drawn) [Idazoxan]
[3H]-RX821002 α2 pKi [2]: 7.92 ± 0.07 | [3H]-2-BFI I2 pKi (One Site) [1]: 7.41 ± 0.63 | [3H]-2-BFI I2 pKi (Two Sites), high affinity (pKiH) [1]: 7.87 ± 0.74 | [3H]-2-BFI I2 pKi (Two Sites), low affinity (pKiL) [1]: 5.76 ± 0.57

Cl.c1ccc2[nH]c(-n3ccnc3)cc2c1 [LSL29, 2-Imidazol-1-yl-1H-indole hydrochloride]
[3H]-RX821002 α2 pKi [2]: 4.99 ± 0.18 | [3H]-2-BFI I2 pKi (One Site) [1]: 4.57 ± 0.23 | [3H]-2-BFI I2 pKi (Two Sites), high affinity (pKiH) [1]: 8.54 ± 0.71 | [3H]-2-BFI I2 pKi (Two Sites), low affinity (pKiL) [1]: 4.09 ± 0.22 | Papp [3]: 108 ± 4 nm/s

Cl.c1ccc2nc(-n3ccnc3)ccc2c1 [LSL35, 1-(Quinoline-2-yl)-1H-imidazole hydrochloride]
[3H]-RX821002 α2 pKi [2]: 5.24 ± 0.26 | [3H]-2-BFI I2 pKi (One Site) [1]: 5.49 ± 0.14 | Papp [3]: 162 ± 9 nm/s

c1ccc2c(c1)OCC(c1ncc[nH]1)O2 (stereo not drawn) [LSL39, 2-(2,3-Dihydrobenzo[1, 4]dioxin-2-yl)-1H-imidazole hydrochloride]
[3H]-RX821002 α2 pKi [2]: 3.97 ± 0.25 | [3H]-2-BFI I2 pKi (One Site) [1]: 6.10 ± 0.25

Cl.c1ccc2nc(-c3ncc[nH]3)ccc2c1 [LSL42, 2-(Quinoline-2-yl)-1H-imidazole hydrochloride]
[3H]-RX821002 α2 pKi [2]: 5.32 ± 0.24 | [3H]-2-BFI I2 pKi (One Site) [1]: 5.24 ± 0.12 | Papp [3]: 58 ± 2 nm/s

C(=C\c1ccccc1)/C1=NCCN1 [Tracizoline, reference compound]
pKi (exp) α2 ([2]; Table S3, new ligands and known I2-IR ligands): 4.330 | pKi (exp) I2 ([1]; Table S2, new ligands and known I2-IR ligands): 7.580
